# Results as given in US20040133938A1, “Use of lipoic acid in plant culture media” (priority 2002, published 2004).
# Experiments:
# [1] = tested on: potato stem explants, cultivar Ranger Russet; test: Potato Agrobacterium transformation with glyphosate selection; assay type: cell-based; details: for #rooted / shoots: 400 explants; for % TE (transformation efficiency) / % escape: potato
# Experimental: This Example describes the use of lipoic acid in an Agrobacterium-based potato transformation protocol. Five days prior to inoculation, Agrobacterium containing the transformation vector of interest were streaked on a fresh LBssck plate (see media descriptions in Example 1) from the frozen glycerol stock, grown at about 28° C. for 3-4 days and stored in the refrigerator. About 20-22 hours before inoculation, 50 mL of liquid LBssck media (see media descriptions in Example 1) were dispensed into a 250-mL sterile flask. Using a sterile bacteriological loop, one loopful of bacteria from the LBssck plate was inoculated and agitated in the liquid LBssck. The 250-mL flasks were shaken at 25° C. overnight at medium to high speed. On inoculation day, 45 mL of MSO (4.4 g/L MS salts, 2 mL/L, Gamborg's B5 salts, 30 g/L sucrose) were dispensed into a 250 mL sterile flask. Using a sterile 5 mL pipette, 5 mL of the suspension was removed and dispensed into the flask containing the 45 mL of MSO and then agitated. The desired O.D. used for Agrobacterium transformation in potato was O.D.660=0.1.
# The stock plant material to be used was collected from the growth chamber (16-hour light, 20° C.). The meristem was excised from the stock plants, and the cut end was placed in fresh PM (see media descriptions below) media, with ten meristems per plantcon. The leaves were removed from the potato stems by either cutting with a scalpel or pinching them off with forceps. After removing all the leaves in the plantcon, the stems were excised near the base and placed in an empty, sterile plantcon containing MSO. During this process, the plantcon(s) containing stems were kept closed except when adding more stems.
# On the day of the inoculation, the stems were cut into 7 mm sections using a sterile scalpel and forceps. A 1/10 Agrobacterium solution was prepared by pipetting 4 mL of the Agrobacterium culture into 36 mL of MSO. The 1/10 agro solution was poured into the respective plates and swirled gently. A small amount of MSO was dispensed into the regeneration tissue and swirled. It was incubated for 15 min.
# After 15 minutes, the Agrobacterium solution was removed with a vacuum aspirator. Using a sterile scoopula, the explants were scooped and spread onto the coculture plates with a piece of sterile 8.5 cm Whatman filter paper placed in the middle, about 100 explants per plate. The plates were placed in a bag and stored in a warm room ( 16/8 hour light, 19° C.) for two days.
# After the two-day co-culture period, explants were placed on the appropriate selection media corresponding to the selectable marker provided in the transformation vector.
# The explants were placed on the Z1 nonselection media at 20 explants per plate. The plates were placed in a bag and stored in a warm room (16-hour light, 19° C.). The glyphosate constructs were transferred to selection medium in 3 days.
# In three days, the explants were transferred to Z1 glyphosate selection media at 20 explants per plate. The plates are bagged and placed in the warm room for one week.
# After one week, the explants that were on Z1 glyphosate media were transferred to Z2 glyphosate media at 20 explants per plate. The plates were bagged and placed back in the warm room for 4 weeks. They remained on-this selection media for four weeks.
# After two weeks, the experiment was checked for any shoots at this point. Shoots that were originating directly from the callusing end of the explant were excised. The shoots were placed on rooting media containing either kanamycin or glyphosate depending upon the selection used in the experiment and placed in the growth chamber. These were checked for rooting in two weeks. Any that were rooting were cut into tubes. This process was repeated after 2 more weeks. Any non-rooting plants were discarded after 4 weeks.
# The lipoic acid study was conducted using the glyphosate transformation protocol as outlined above. […]
# [2] = tested on: cotton hypocotyl explants; test: Cotton transformation: embryogenic callus formation, lipoic acid in UMSEL media; assay type: cell-based; details: average from 3 experiments
# Experimental: Cotton seed was washed in 2 teaspoons of detergent in 700-800 mL of sterile water for 10 minutes. Seed was then soaked in fungicide solution (0.6 g benlate, 0.6 g captan per 100 mL sterile water) for 10 min, drained, but not rinsed. Seed was imbibed for 30 minutes in 800 mL of 50% Clorox with 3 drops of Tween-20 and then rinsed 3 times with sterile water. Seed was spread in a sterile phytatray containing 1/2 MS plus 1% glucose media at a density of approximately 20 seeds per tray. Seeds were germinated in the dark at 28° C. for 7-10 days.
# Agrobacterium was prepared by streaking a solid LBssck plate from frozen stock and incubating at 28° C. for 2 days. Two mL of liquid LBssck was inoculated with a single colony from the plate and grown overnight at 28° C. Culture is diluted 1:10 with fresh LBssck and cultured overnight at 28° C. The cells were spun down, the supernatant was poured off, cells were washed with MSO media and then resuspended in 20 mL of MSO.
# Explants were harvested by cutting off the cotyledons and then making a cut approximately 4 to 6 cm below the cotyledon. Hypocotyl sections were placed in MSO media and then cut into 0.5 to 1 cm pieces.
# Twenty mL of Agrobacterium broth was added to 100 to 500 cut explant sections and allowed to soak for 20 minutes. Explants were moved to co-culture medium (TrCO; see media descriptions below), covered with a plastic bag and co-cultured at room temperature for 2 days. After co-culture, explants were moved to UMSEL (1) media (with kanamycin or glyphosate selection), parafilmed and cultured in the light ( 16/8 photoperiod) at 28° C. for 4 weeks. Tissue was then transferred to fresh UMSEL (2) media containing selection in the same culture conditions for an additional 4 weeks.
# Independent calli that had formed were then moved to UMO(1) containing selection, parafilmed and cultured in the dark at 28° C. for 8 weeks. After 8 weeks, tissue was transferred to fresh UMO(2) containing selection, parafilmed, and cultured in the dark for an additional 8 weeks. Good embryogenic callus was moved to TRP embryo maturation media, parafilmed and cultured in the dark at 28° C. Embryogenic callus was subcultured to fresh TRP media every 4 weeks until somatic embryos formed and were moved to SHSU embryo germination media. Once on parafilmed SHSU plates, the shoots were placed in the light at 28° C. and subcultured every four weeks until roots began to form. When healthy roots and leaves were present, the shoots were moved to SHSU media in sundae cups and eventually to soil.
# [3] = 8 μM lipoic acid, listed as Lipoic acid
# [4] = 9 μM lipoic acid, listed as Lipoic acid
# [5] = 5 μM lipoic acid for 8 weeks in UMSEL media
# [6] = 10 μM lipoic acid for 8 weeks in UMSEL media
# [7] = 50 μM lipoic acid for 8 weeks in UMSEL media
# [8] = 100 μM lipoic acid for 8 weeks in UMSEL media
smiles,measurement,setting,value
"O=C(O)CCCCC1CCSS1 (stereo not drawn) [lipoic acid, 1,2-dithiolane-3-pentanoic acid]",#rooted,[1]; 6 μM lipoic acid,18
same,shoots,[1]; 6 μM lipoic acid,27
same,% TE (transformation efficiency),[1]; 6 μM lipoic acid,4.5%
same,% escape,[1]; 6 μM lipoic acid,33.0%
same,#rooted,[1]; 7 μM lipoic acid,16
same,shoots,[1]; 7 μM lipoic acid,25
same,% TE (transformation efficiency),[1]; 7 μM lipoic acid,4.0%
same,% escape,[1]; 7 μM lipoic acid,36.0%
same,#rooted,[1]; 8 μM lipoic acid,75
same,shoots,[1]; 8 μM lipoic acid,89
same,% TE (transformation efficiency),[1]; 8 μM lipoic acid,19.0%
same,% escape,[1]; 8 μM lipoic acid,16.0%
same,% TE (transformation efficiency),[1]; [3],19%
same,% escape,[1]; [3],16%
same,#rooted,[1]; 9 μM lipoic acid,70
same,shoots,[1]; 9 μM lipoic acid,89
same,% TE (transformation efficiency),[1]; 9 μM lipoic acid,18.0%
same,% escape,[1]; 9 μM lipoic acid,21.0%
same,% TE (transformation efficiency),[1]; [4],18%
same,% escape,[1]; [4],21%
same,increase in transformation efficiency,[1]; lipoic acid at 8 μM and 9 μM vs control,sixfold increase
same,effect on transformation efficiency and escapes,[1]; lipoic acid at 6 and 7 μM,little effect
same,Frequency (%) of embryogenic callus formation,[2]; [5],49.4%
same,Putative embryogenic calli,[2]; [5],132
same,Frequency (%) of embryogenic callus formation,[2]; [6],31.4%
same,Putative embryogenic calli,[2]; [6],88
same,Frequency (%) of embryogenic callus formation,[2]; [7],61.2%
same,Putative embryogenic calli,[2]; [7],120
same,Frequency (%) of embryogenic callus formation,[2]; [8],56.6%
same,Putative embryogenic calli,[2]; [8],107
